Experimental data published in patent publication US5084450A, “Novel steroids” (Roussel Uclaf, priority 1990, dated 1992).

Legend:
[1] = biological target: T1, specific receptor of progesterone (Oryctolagus cuniculus, UniProt P06186); test: Hormonal receptor method: displacement of tritiated product R from rabbit uterus cytosol (relative binding affinity vs progesterone); details: for RBA 2 hours / RBA 24 hours: relative affinity, tritiated product R; for RBA 2 hours: progesterone = 100, incubation at 0° C. for 2 hours; for RBA 24 hours: progesterone = 100, incubation at 0° C. for 24 hours
T1 construct: the uteri were removed and homogenized; from tissue; host or cells: rabbit uterus, cytosol (105,000 g supernatant), estradiol-treated impuberal rabbits
T1 sequence (P06186 1-930): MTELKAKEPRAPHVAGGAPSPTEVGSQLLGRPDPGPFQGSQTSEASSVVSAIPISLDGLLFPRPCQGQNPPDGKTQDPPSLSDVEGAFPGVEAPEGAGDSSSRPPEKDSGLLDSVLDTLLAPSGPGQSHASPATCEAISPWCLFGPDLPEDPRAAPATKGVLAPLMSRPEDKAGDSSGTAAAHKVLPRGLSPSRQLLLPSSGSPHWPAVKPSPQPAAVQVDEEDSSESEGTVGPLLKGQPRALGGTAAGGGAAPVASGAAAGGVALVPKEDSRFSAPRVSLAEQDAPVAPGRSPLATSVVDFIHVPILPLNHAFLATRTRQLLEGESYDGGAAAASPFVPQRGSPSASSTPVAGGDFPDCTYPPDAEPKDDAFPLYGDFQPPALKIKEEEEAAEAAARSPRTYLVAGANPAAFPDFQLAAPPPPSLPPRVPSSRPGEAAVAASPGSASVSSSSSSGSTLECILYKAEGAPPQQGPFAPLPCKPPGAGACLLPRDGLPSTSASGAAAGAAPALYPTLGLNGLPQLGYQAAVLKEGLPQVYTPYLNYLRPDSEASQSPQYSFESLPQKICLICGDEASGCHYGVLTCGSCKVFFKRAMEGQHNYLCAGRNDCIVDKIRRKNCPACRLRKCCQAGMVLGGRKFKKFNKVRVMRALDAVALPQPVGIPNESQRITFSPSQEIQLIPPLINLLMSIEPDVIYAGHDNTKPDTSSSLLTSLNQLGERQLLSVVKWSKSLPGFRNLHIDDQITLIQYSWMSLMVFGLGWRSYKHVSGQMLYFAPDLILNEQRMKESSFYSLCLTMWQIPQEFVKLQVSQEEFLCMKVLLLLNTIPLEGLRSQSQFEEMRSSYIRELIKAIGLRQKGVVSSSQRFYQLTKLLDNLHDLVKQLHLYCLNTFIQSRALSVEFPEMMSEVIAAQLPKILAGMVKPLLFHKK
Description: a) The progestomimetic activity of the products of Examples 1 and 2 was studied by the method of hormonal receptors described by RAYNAUD et al in "J. Ster. BIOCHEM" 1975, Vol. 6, 615 to 622 and in "Physiology and Genetics of Reproduction", 1975 part A p. 143 to 160. The technique was as follows: […] of estradiol were administered to impuberal rabbits per-cutaneously. Five days after this treatment, the animals were killed, the uteri were removed and homogenized in a 10 mM tromethamine, 0.25 M saccharose, HCl pH 7.4 buffer. The homogenate was centrifuged at 105,000 g for one hour and the supernatant liquid or cytosol was adjusted to have a dilution of 1/50 (weight/volume). Tubes with the same volume of cytosol were incubated at 0° C. for two hours with a fixed concentration of tritiated 17,21-dimethyl-19-nor- Δ^4,9 -pregandiene-3,20-dione, called hereafter tritiated product R, in the presence or not of an increasing concentration of radio-inert 17,21-dimethyl-19-nor-Δ^4,9 -pregnadiene-3,20-dione called hereafter cold product R, of progesterone or of product under test. After two hours and after 24 hours, the radioactivity of bound tritiated product R was determined by the technique of absorption with cabon-dextran (1.25%-0.625%).
Then the following was traced: the straight line parallel to the axis of the abscesses, of the coordinate [formula]
Bo being the maximum quantity of bound tritiated product R, measured in the incubate containing only tritiated product R, Bmin being the minimum quantity of bound tritiated product R (non-specific), measured in the incubate containing tritiated product R plus a large excess of cold product R (2500 10^-9 M), the curves representing the percentages of bound tritiated product [formula] as a function of the logarithm of the concentrations of added cold product.
The intersections of the straight line I50 and the curves allowed the values CP and CX to be determined. CP: concentration of cold progesterone which inhibited by 50% the fixing of the tritiated product R. CX: concentration of the product under test which inhibited by 50% the fixing of the tritiated product R.
The relative affinity of the product under test or RBA is given by the formula

impuberal rabbits = test: CLAUBERG test (lacy proliferation of the endometrium); type: in vivo, rabbit
Description: b) The progestomimetic activity of the product of Example 2 was determined by the CLAUBERG test. According to this test, groups of three impuberal rabbits were sensitized before-hand by the administration of estradiol sub-cutaneously for five days at a daily dose of 5 micrograms. Two days later, they were treated daily for five days with the medicament under study sub-cutaneously.
The product of Example 2 was used in solution in sesame oil containing 5% benzyl alcohol.

| SMILES | affinity for the specific receptor of progesterone (conclusion in words) [1] | RBA 2 hours [1] | RBA 24 hours [1] | Mac Phail UNITS (impuberal rabbits; 0.3 μg/rabbit/day sub-cutaneously for five days, estradiol-sensitized impuberal rabbits, sesame oil with 5% benzyl alcohol) | Mac Phail UNITS (impuberal rabbits; 1 μg/rabbit/day sub-cutaneously for five days, estradiol-sensitized impuberal rabbits, sesame oil with 5% benzyl alcohol) | Mac Phail UNITS (impuberal rabbits; 3 μg/rabbit/day sub-cutaneously for five days, estradiol-sensitized impuberal rabbits, sesame oil with 5% benzyl alcohol) | progestomimetic activity (conclusion in words) (impuberal rabbits; CLAUBERG test, sub-cutaneous, impuberal rabbits) | Mac Phail UNITS (impuberal rabbits; daily dose of 10 micrograms, sub-cutaneously, impuberal rabbits) |
| --- | --- | --- | --- | --- | --- | --- | --- | --- |
| C[C@]12CC[C@H]3[C@@H](CCC4=CC(=O)CC[C@@H]43)[C@@H]1CC[C@@]21CCCC1=O [Example 1, Spiro (cyclopentane-1,17'β-Δ4'-estrene)-2,3'-dione] | very strong affinity | 312 | 1012 |  |  |  |  |  |
| C[C@]12CCC3=C4CCC(=O)C=C4CC[C@H]3[C@@H]1CC[C@@]21CCCC1=O [Example 2, spiro (cyclopentane-1,17'β -Δ4,9-estradiene)-2,3'-dione] | very strong affinity | 344 | 912 | 0.5 Mac Phail units | 1.8 Mac Phail units | 2.8 Mac Phail units | very strong progestomimetic activity | 2.8 Mac Phail units |
